The values that follow come from patent US20080293712A1, “Benzo[C][2,7]Naphtyridine Derivatives, Methods of Making Thereof and Methods of Use Thereof” (WYETH, priority 2007, published 2008).

Where only a bound is given, the exact number is not on record here.

What all share (assay type): biochemical
Assay [1] concerns the target PKA (Homo sapiens, UniProt P17612). Description: PKA kinase inhibition, Z'-LYTE FRET assay. The following applies: 20 μM ATP.
Description: Z′-Lyte™ assay is an in vitro FRET-based assay that utilizes differential sensitivity of phosphorylated and non-phosphorylated peptides to proteolytic cleavage. The peptide substrate (also available from Invitrogen for each of PKA, Akt1 and S6K) is labeled with two different fluorophores, a fluorescence donor at one end of the peptide and a fluorescence acceptor at the other end of the peptide. In the primary kinase reaction, the kinase phosphorylates the peptide substrate in the presence of ATP. In the secondary reaction, a site-specific protease recognizes and cleaves non-phosphorylated peptides, but not phosphorylated peptides. Cleavage disrupts FRET between the donor and acceptor fluorophores on the peptide, whereas uncleaved phosphorylated peptides maintain FRET. Based on a formula that uses the ratio of donor emission (at 460 nm) to acceptor emission (at 535 nM) after excitation of the donor fluorophore at 400 nm, the extent of phosphorylation of the peptide substrates is calculated.
The target in assay [2] is Akt1 (Homo sapiens, UniProt P31749). Put plainly: Akt1 kinase inhibition, Z'-LYTE FRET assay. The following applies: 100 μM ATP. The text has this: The ability of illustrative Benzo[c][2,7]naphthyridine Derivatives to inhibit PKA, Akt1, S6K in vitro can be determined using a Fluorescence Resonance Energy Transfer (FRET) assay, such as a Z′-LYTE™ Kinase Assay Platform, commercially available from Invitrogen (c.f. Rodems et al., ASSAY Drug Devel. Technol. 1:9-19 (2002) and Zhang et al., J. Biomol. Screen. 4:67-73 (1999)). Z′-Lyte™ assay is an in vitro FRET-based assay that utilizes differential sensitivity of phosphorylated and non-phosphorylated peptides to proteolytic cleavage. The peptide substrate (also available from Invitrogen for each of PKA, Akt1 and S6K) is labeled with two different fluorophores, a fluorescence donor at one end of the peptide and a fluorescence acceptor at the other end of the peptide. In the primary kinase reaction, the kinase phosphorylates the peptide substrate in the presence of ATP. In the secondary reaction, a site-specific protease recognizes and cleaves non-phosphorylated peptides, but not phosphorylated peptides. Cleavage disrupts FRET between the donor and acceptor fluorophores on the peptide, whereas uncleaved phosphorylated peptides maintain FRET. Based on a formula that uses the ratio of donor emission (at 460 nm) to acceptor emission (at […]) after excitation of the donor fluorophore at 400 nm, the extent of phosphorylation of the peptide substrates is calculated. IC50 values of illustrative Benzo[c][2,7]naphthyridine Derivatives, shown in Table 12, are calculated using LSW Data Analysis package add-in for Excel (Microsoft).

The target in assay [3] is T1, PDK-1 (Homo sapiens, UniProt O15530).
T1 sequence (O15530 1-556): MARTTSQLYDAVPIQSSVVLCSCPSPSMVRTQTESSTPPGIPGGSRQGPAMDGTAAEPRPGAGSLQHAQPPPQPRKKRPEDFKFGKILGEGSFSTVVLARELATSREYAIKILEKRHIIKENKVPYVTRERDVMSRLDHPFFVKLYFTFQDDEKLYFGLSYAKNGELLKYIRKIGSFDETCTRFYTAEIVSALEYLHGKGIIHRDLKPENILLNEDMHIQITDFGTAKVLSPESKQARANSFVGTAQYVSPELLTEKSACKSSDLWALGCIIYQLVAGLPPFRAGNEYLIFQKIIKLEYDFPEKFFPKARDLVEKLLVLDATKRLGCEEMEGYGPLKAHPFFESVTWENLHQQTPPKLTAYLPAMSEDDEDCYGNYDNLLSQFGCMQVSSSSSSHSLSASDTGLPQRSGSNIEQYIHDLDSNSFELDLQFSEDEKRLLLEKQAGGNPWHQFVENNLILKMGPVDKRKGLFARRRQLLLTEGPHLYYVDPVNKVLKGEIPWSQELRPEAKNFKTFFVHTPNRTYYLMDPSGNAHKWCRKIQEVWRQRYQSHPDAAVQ
Description: PDK-1 kinase inhibition ELISA assay (phosphorylation of His6-tagged SGK1 S422D by PDK-1). As to conditions: PDK-1 ELISA, Table 11; read-out: Average IC50. In general terms: ELISA stands for enzyme-linked immunosorbent assay.

Sequence of Akt1 (P31749 whole entry, species assumed): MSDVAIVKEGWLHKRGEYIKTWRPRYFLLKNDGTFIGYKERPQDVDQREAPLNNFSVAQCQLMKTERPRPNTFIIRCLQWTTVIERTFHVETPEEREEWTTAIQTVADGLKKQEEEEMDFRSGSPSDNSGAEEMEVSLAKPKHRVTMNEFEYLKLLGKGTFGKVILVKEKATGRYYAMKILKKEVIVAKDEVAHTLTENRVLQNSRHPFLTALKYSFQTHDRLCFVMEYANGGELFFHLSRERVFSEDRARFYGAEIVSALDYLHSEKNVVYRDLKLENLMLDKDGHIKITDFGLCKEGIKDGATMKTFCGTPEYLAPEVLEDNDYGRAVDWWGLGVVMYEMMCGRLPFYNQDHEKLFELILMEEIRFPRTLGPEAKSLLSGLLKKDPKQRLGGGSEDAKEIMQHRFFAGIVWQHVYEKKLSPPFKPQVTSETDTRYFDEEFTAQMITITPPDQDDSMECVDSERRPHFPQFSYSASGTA

For the molecule `CC(C)(C)OC(=O)N[C@H](COc1cncc(-c2cc3c(cnc4cc(C#CCCn5ccnc5)ccc43)c(N)n2)c1)Cc1ccccc1` [Ia-6, tert-Butyl-{(1S)-2-[(5-{4-amino-8-[4-(1H-imidazol-1-yl)but-1-yn-1-yl]benzo[c]-2,7-naphthyridin-2-yl}pyridin-3-yl)oxy]-1-benzylethyl}carbamate], the values for the 50% inhibitory concentration (IC50) in assay [1], in assay [2] and in assay [3] were above 20000 nM, above 20000 nM and above 5000 nM, respectively.
As to `CC(C)(C)OC(=O)N[C@H](COc1cncc(-c2cc3c(cnc4cc(Br)ccc43)c(N)n2)c1)Cc1ccccc1` [Ia-7, tert-butyl ((1S)-2-{[5-(4-amino-8-bromobenzo[c]-2,7-naphthyridin-2-yl)pyridin-3-yl]oxy}-1-benzylethyl)carbamate], the IC50 – broadly, the concentration at which inhibition is half-maximal – is above 20000 nM in assay [1], above 20000 nM in assay [2] and above 5000 nM in assay [3].
For the molecule `COc1cc2c(cc1OCCCN1CCCC1)ncc1c(N)nc(-c3cccnc3C)cc12` [Ia-9, 9-Methoxy-2-(2-methylpyridin-3-yl)-8-(3-pyrrolidin-1-ylpropoxy)benzo[c]-2,7-naphthyridin-4-amine], the half-maximal inhibitory concentration (IC50) in assay [1] is above 10000 nM; in assay [2], 4000 nM; in assay [3], 2120 nM.
The corresponding values for `COc1cc2c(cc1OCCCN1CCN(C)CC1)ncc1c(N)nc(-n3ccnc3)cc12` [Ia-14, 2-(1H-imidazol-1-yl)-9-methoxy-8-(3-(4-methylpiperazin-1-yl)propoxy)benzo[c][2,7]naphthyridin-4-amine] are above 10000 nM, 350 nM and 356 nM.
Consider `COc1cc2c(cc1N1CCC(N3CCCC3)CC1)ncc1c(N)nc(-c3cccnc3C)cc12` [Ia-19, 9-methoxy-2-(2-methylpyridin-3-yl)-8-(4-pyrrolidin-1-ylpiperidin-1-yl)benzo[c]-2,7-naphthyridin-4-amine], for which the figures for the IC50 in assay [1] and in assay [3] were above 10000 nM and above 5000 nM, respectively.
Consider `CN(C)CC#Cc1ccc2c(c1)ncc1c(N)nc(-n3ccnc3)cc12` [Ia-36, 8-[3-(Dimethylamino)prop-1-yn-1-yl]-2-(1H-imidazol-1-yl)benzo[c]-2,7-naphthyridin-4-amine], for which the 50% inhibitory concentration (IC50) stood at 2000 nM in assay [2] and 531 nM in assay [3].
Regarding `COc1cc2ncc3c(N)nc(-n4ccnc4)cc3c2cc1OC` [Ib-74, 2-(1H-imidazol-1-yl)-8,9-dimethoxybenzo[c]-2,7-naphthyridin-4-amine], the half-inhibitory concentration (IC50) in assay [1] was above 20000 nM; in assay [2], 180 nM.
With `COc1cc2ncc3c(N)nc(-c4cncc(Nc5ccc(C(N)=O)cc5)c4)cc3c2cc1OC` [Ib-206, 4-{[5-(4-amino-8,9-dimethoxybenzo[c][2,7]naphthyridin-2-yl)pyridin-3-yl]amino}benzamide], the IC50 in assay [3] was 183 nM.
On to `COc1ccc(Oc2cncc(-c3cc4c(cnc5cc(OC)c(OC)cc54)c(N)n3)c2)cc1` [Ib-210, 8,9-dimethoxy-2-[5-(4-methoxyphenoxy)pyridin-3-yl]benzo[c][2,7]naphthyridin-4-amine], for which the IC50 in assay [3] was above 700 nM.
Same read-out and setting: then `COc1cc2ncc3c(N)nc(-c4ccc(Br)c(F)c4)cc3c2cc1OC` [Ib-234, 2-(4-bromo-3-fluorophenyl)-8,9-dimethoxybenzo[c][2,7]naphthyridin-4-amine], with 1000 nM; and `COc1ccc(-c2cc3c(cnc4cc(OC)c(OC)cc43)c(N)n2)cn1` [Ib-237, 8,9-dimethoxy-2-(6-methoxypyridin-3-yl)benzo[c][2,7]naphthyridin-4-amine], with 50 nM.
On the same count and under the same terms, then `COc1cc2ncc3c(N)nc(-c4cc(F)cc(F)c4)cc3c2cc1OC` [Ib-239, 2-(3,5-difluorophenyl)-8,9-dimethoxybenzo[c][2,7]naphthyridin-4-amine], with 1000 nM.
As to `COc1cc2ncc3c(N)nc(-c4ccc(F)c(F)c4)cc3c2cc1OC` [Ib-240, 2-(3,4-difluorophenyl)-8,9-dimethoxybenzo[c][2,7]naphthyridin-4-amine], in assay [3], the IC50 came to 998 nM.
Still for that read-out and setting: then `COc1cc2ncc3c(N)nc(-c4cc(F)cc(C#N)c4)cc3c2cc1OC` [Ib-241, 3-(4-amino-8,9-dimethoxybenzo[c][2,7]naphthyridin-2-yl)-5-fluorobenzonitrile], with 1000 nM; and `COc1cc(F)cc(-c2cc3c(cnc4cc(OC)c(OC)cc43)c(N)n2)c1` [Ib-242, 2-(3-fluoro-5-methoxyphenyl)-8,9-dimethoxybenzo[c][2,7]naphthyridin-4-amine], with 147 nM; and `COc1cc2ncc3c(N)nc(-c4cccc(C(=O)N5CCN(c6ccccn6)CC5)c4)cc3c2cc1OC` [Ib-247, 8,9-dimethoxy-2-{3-[(4-pyridin-2-ylpiperazin-1-yl)carbonyl]phenyl}benzo[c][2,7]naphthyridin-4-amine], with 1000 nM.
Still for that read-out and setting: next, `COc1cc2ncc3c(N)nc(-c4cccc(C(=O)NCc5cccnc5)c4)cc3c2cc1OC` [Ib-248, 3-(4-amino-8,9-dimethoxybenzo[c][2,7]naphthyridin-2-yl)-N-(pyridin-3-ylmethyl)benzamide]: 1000 nM.
On the same count and under the same terms, next, `COc1cc2ncc3c(N)nc(-c4ccc5[nH]ncc5c4)cc3c2cc1OC` [Ib-249, 2-(1H-indazol-5-yl)-8,9-dimethoxybenzo[c][2,7]naphthyridin-4-amine]: 205 nM; `COc1cc2ncc3c(N)nc(-c4cc(F)cc(CCCN)c4)cc3c2cc1OC` [Ib-250, 2-(3-(3-Aminopropyl)-5-fluorophenyl)-8,9-dimethoxybenzo[c][2,7]naphthyridin-4-amine]: 34 nM; `CC[C@@H](COc1cncc(-c2cc3c(cnc4cc(OC)c(OC)cc43)c(N)n2)c1)NC(=N)N` [Ib-251, (S)-1-(1-(5-(4-amino-8,9-dimethoxybenzo[c][2,7]naphthyridin-2-yl)pyridin-3-yloxy)butan-2-yl)guanidine]: 32 nM.
`COc1cc2ncc3c(N)nc(-c4cncc(C#CCN)c4)cc3c2cc1OC` [Ib-252, 2-[5-(3-aminoprop-1-yn-1-yl)pyridin-3-yl]-8,9-dimethoxybenzo[c][2,7]naphthyridin-4-amine]: in assay [3], the half-maximal inhibitory concentration (IC50) was 53 nM.
`COc1cc2ncc3c(N)nc(-c4cncc(CCCN)c4)cc3c2cc1OC` [Ib-256, 2-[5-(3-aminopropyl)pyridin-3-yl]-8,9-dimethoxybenzo[c][2,7]naphthyridin-4-amine]: the half-maximal inhibitory concentration (IC50) in assay [3] is 27 nM.
The same measure, in the same setting: then `COc1cc2ncc3c(N)nc(-c4cncc(CCC(C)(C)N)c4)cc3c2cc1OC` [Ib-257, 2-[5-(3-amino-3-methylbutyl)pyridin-3-yl]-8,9-dimethoxybenzo[c][2,7]naphthyridin-4-amine], with 29 nM; and `COc1cc2ncc3c(N)nc(-c4cncc(CCC5(N)CCCCC5)c4)cc3c2cc1OC` [Ib-258, 2-{5-[2-(1-aminocyclohexyl)ethyl]pyridin-3-yl}-8,9-dimethoxybenzo[c][2,7]naphthyridin-4-amine], with 27 nM; and `C=CCOc1cncc(-c2cc3c(cnc4cc(OC)c(OC)cc43)c(N)n2)c1` [Ib-266, 2-(5-(Allyloxy)pyridin-3-yl)-8,9-dimethoxybenzo[c][2,7]naphthyridin-4-amine], with 18 nM.
The same measure, in the same setting: then `COc1cc2ncc3c(N)nc(-c4cncc(OCC(=O)c5ccccc5)c4)cc3c2cc1OC` [Ib-267, 2-{[5-(4-amino-8,9-dimethoxybenzo[c][2,7]naphthyridin-2-yl)pyridin-3-yl]oxy}-1-phenylethanone], with 798 nM; and `CCCCNC(=N)c1cncc(-c2cc3c(cnc4cc(OC)c(OC)cc43)c(N)n2)c1` [Ib-268, 5-(4-Amino-8,9-dimethoxybenzo[c][2,7]naphthyridin-2-yl)-N-butylnicotinimidamide], with 1000 nM.
As for `COc1cc2ncc3c(N)nc(-c4cncc(C(=N)NC(C)C)c4)cc3c2cc1OC` [Ib-269, 5-(4-Amino-8,9-dimethoxybenzo[c][2,7]naphthyridin-2-yl)-N-isopropylnicotin-imidamide], the concentration for half-maximal inhibition (IC50) in assay [3] is 606 nM.
`CCC(C)NC(=N)c1cncc(-c2cc3c(cnc4cc(OC)c(OC)cc43)c(N)n2)c1` (stereo not shown) [Ib-270, 5-(4-Amino-8,9-dimethoxybenzo[c][2,7]naphthyridin-2-yl)-N-sec-butylnicotin-imidamide]: the IC50 in assay [3] came to 606 nM.
